The source of these data is patent US20240116990A1, “Compositions and Methods of Treatment Using CRRL 191” (Mayo Foundation for Medical Education and Research, priority 2022, published 2024).

Data set [1] addresses T1, human GC-A (Homo sapiens, UniProt P16066).
T1 construct: host or cells: HEK293
T1 sequence (P16066 33-1061): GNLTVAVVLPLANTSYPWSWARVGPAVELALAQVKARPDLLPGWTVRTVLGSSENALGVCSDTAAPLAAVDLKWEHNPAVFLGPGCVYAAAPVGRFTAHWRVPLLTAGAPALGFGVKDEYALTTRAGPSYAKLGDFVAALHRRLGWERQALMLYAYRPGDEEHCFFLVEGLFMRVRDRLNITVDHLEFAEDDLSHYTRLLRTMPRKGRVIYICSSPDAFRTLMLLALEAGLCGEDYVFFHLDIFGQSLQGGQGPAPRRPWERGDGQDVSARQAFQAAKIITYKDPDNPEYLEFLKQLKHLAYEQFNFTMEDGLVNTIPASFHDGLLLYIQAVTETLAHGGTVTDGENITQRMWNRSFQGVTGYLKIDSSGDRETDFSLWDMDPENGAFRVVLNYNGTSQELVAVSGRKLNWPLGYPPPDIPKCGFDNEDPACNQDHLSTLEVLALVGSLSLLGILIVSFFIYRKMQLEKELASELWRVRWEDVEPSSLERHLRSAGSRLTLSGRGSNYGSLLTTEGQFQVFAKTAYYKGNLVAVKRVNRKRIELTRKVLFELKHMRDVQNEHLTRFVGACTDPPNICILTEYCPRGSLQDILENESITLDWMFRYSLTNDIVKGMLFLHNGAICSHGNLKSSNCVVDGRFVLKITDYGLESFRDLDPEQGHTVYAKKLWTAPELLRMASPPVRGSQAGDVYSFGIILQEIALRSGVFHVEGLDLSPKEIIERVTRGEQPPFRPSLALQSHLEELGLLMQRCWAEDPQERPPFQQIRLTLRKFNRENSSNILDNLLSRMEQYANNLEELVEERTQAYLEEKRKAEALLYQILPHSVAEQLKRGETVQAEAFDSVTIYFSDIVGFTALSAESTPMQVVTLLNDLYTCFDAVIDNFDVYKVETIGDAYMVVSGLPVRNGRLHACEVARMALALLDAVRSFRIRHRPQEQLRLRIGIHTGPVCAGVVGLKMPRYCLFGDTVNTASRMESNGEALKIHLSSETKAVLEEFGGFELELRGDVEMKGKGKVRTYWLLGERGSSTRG
The experiment in a line: cGMP production over 6 hours in HEK/GCA cells. In kind it is cell-based. The conditions noted are these: 10^−8 M, FIG. 2. The procedure: HEK293 cells stably transfected with human GC-A (cDNA clones from Origene, Rockville, MD) using Lipofectamine (Invitrogen, Grand Island, NY), are developed. Receptor overexpression is verified with immunofluorescence and western blotting. GC-A-transfected HEK293 (HEK/GCA) cells are maintained in Dulbecco's modified Eagle's medium (DMEM) supplemented with 10% fetal bovine serum (FBS), 100 U/ml penicillin, 100 U/ml streptomycin and 250 μg/ml G418.
Two in vitro cGMP assays are performed. Briefly, HEK/GCA cells are seeded in 48-well plates and cultured overnight to 80-90% confluency. The treatment buffer used in all experiments comprises Hank's Balanced Salt Solution (HBSS), 0.1% bovine serum albumin (BSA), 2 mM HEPES, and 0.5 mM 3-isobutyl-1-methylxanthine (IBMX, a non-specific phosphodiesterase inhibitor) (Sigma, St. Louis, MO).
After treatment, all cells are washed with phosphate buffered solution (PBS) once and lysed with 0.1M HCl.

Data set [2] deals with T2, extracellular domain of GC-A recombinant protein (Homo sapiens, UniProt P16066).
T2 construct: The extracellular domain of GC-A recombinant protein with a C-terminal His-tag (MyBioSource, Inc., San Diego, CA); purchased MyBioSource, Inc., San Diego, CA
T2 sequence (P16066 33-473 limits assumed): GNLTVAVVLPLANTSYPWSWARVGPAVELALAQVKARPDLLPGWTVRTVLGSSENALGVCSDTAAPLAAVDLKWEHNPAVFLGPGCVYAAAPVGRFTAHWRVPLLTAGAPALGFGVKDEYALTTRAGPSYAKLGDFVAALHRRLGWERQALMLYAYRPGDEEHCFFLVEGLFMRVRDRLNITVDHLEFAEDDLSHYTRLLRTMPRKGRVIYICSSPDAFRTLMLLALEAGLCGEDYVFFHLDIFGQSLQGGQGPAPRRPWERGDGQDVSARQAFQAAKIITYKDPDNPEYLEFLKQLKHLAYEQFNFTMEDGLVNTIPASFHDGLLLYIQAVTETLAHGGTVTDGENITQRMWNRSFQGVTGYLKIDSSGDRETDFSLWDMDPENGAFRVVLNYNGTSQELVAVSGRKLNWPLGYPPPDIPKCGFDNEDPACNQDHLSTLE
In words: GC-A binding by surface plasmon resonance (SPR). The conditions noted are these: SPR binding curves, FIG. 7. (In general: SPR reads the build-up and loss of mass on a sensor chip optically.)
Method: Surface plasmon resonance (SPR) measurements are performed at 25° C. on a BI-4500 SPR instrument (Biosensing Instrument Inc., Tempe, AZ). The extracellular domain of GC-A recombinant protein with a C-terminal His-tag (MyBioSource, Inc., San Diego, CA) is immobilized onto a Ni-NTA sensor chip (Biosensing Instrument Inc., Tempe, AZ) using 400 μM nickel sulfate in de-iron water as linker, as instructed by the instrument manual. Then, 40 μg/ml of recombinant GC-A is immobilized on the Ni-NTA sensor chip. […] Data are collected as sensorgrams. Binding kinetics are calculated from sensorgrams using the BI-Data Analysis Program (Biosensing Instrument, Tempe, AZ).

A short description of data set [3]: physchem. Particulars: water.
Data set [4] concerns the target recombinant human neprilysin (NEP) (Homo sapiens, UniProt P08473). In words: In vitro neprilysin degradation assay (residual cGMP generation in HEK/GCA cells). The conditions noted are these: for original bioactivity retained: 37° C. The procedure: Briefly, 5 μl of 2×10^−5 M peptide is incubated with 5 μl (10 ng/μl) recombinant NEP in 90 μl Tris/0.1% BSA buffer (50 mM Tris-HCl, pH 7.5, 150 mM NaCl, 5 mM MgCl2, 0.1% BSA) at 37° C. for various lengths of time ranging from 15 min to 24 hours. Peptides for the 0-min timepoint are incubated without NEP (buffer only). After incubation for the required length of time (0-min to 24-hour), 100 μl of 0.5 N perchloric acid is added to the reaction solution to inactivate NEP and stop degradation, and 20 μl of 2.5 N NaOH is added to neutralize the solution. The neutralized reaction aliquot is added to HEK/GCA cells and the residual capability of the undegraded peptide (diluted to a final concentration 5.5×10^−8 M) to produce cGMP is measured using the same commercial cGMP ELISA kit (Enzo Life Sciences, Farmingdale, NY) as described in Example 2, following the instructions of the manufacturer.

In data set [5] the test system is Human cardiomyocytes (HCM). The experiment in a line: Human cardiomyocyte (HCM) cGMP analysis. In kind it is cell-based. Here is the method:
Human cardiomyocytes (HCM) are purchased from ScienCell (Catalog #6200) and maintained in Cardiac Myocyte Medium (Cat #6101, ScienCell) containing 10% FBS. An in vitro cGMP assay is performed. Briefly, HCM cells are seeded in 6-well plates and cultured overnight to 80-90% confluency. The treatment buffer used in all experiments comprises Hank's Balanced Salt Solution (HBSS), 0.1% BSA, 2 mM HEPES, and 0.5 mM 3-isobutyl-1-methylxanthine (IBMX, a non-specific phosphodiesterase inhibitor) (Sigma, St. Louis, MO). […] For the negative control, HCM are incubated in treatment buffer (vehicle) only. After treatment for 10 minutes, all cells are washed with phosphate buffered solution (PBS) once, lysed with 0.1 M HCl, and sonicated for 10 min.

Bridge positions count the residues as written; N and C are the ends.

In general, solubility refers to the concentration that dissolves in the medium under given conditions. A lower solubility goes with a poorly soluble substance.

Chain of recombinant human neprilysin (NEP) (P08473 whole entry): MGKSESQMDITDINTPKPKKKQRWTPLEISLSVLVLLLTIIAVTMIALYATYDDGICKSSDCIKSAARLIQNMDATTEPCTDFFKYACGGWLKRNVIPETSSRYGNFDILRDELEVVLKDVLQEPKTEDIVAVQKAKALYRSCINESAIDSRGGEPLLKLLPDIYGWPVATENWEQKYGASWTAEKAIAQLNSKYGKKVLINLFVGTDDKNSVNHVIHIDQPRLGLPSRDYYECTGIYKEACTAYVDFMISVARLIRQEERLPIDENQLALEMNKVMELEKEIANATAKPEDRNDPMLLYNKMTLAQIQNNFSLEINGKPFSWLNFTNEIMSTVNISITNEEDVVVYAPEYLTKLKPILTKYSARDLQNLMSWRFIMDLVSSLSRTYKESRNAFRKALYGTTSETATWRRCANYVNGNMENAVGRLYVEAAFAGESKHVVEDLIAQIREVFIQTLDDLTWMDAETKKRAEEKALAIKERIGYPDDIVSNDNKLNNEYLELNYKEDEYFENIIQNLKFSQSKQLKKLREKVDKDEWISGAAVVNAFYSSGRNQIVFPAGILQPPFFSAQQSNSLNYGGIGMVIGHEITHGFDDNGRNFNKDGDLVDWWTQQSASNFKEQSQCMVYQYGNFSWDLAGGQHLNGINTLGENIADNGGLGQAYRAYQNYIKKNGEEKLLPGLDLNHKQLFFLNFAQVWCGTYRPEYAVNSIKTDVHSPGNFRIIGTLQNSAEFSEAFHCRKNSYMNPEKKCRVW

“H-RALLTAPRSLRRSSCFGHKIDRINHVSNLGCNSFRYRITAREDKQGWA-OH (disulfide 15-31) [CRRL 191]”: the “GC-A activation / cGMP production up to about 30 minutes” value in data set [1] is “increases in cGMP production at the same rate”. The “GC-A activation / cGMP production after 30 minutes” value in data set [1] (up to 6 hours) is “continues to increase up to at least 6 hours”. Moreover, the “binding for the GC-A receptor compared to ANP and MANP” value in data set [2] is given as “greater binding”. The solubility in data set [3] was ≥ 1000 µg/mL. For the same substance, the “resistance to degradation by neprilysin compared to ANP” value in data set [4] (FIG. 3) was “highly resistant”. Also, the values for the original bioactivity retained result in data set [4] (after 30 minutes of neprilysin degradation) and in data set [4] (after 6 hours of neprilysin degradation) were “about 90%” and 84%, respectively. The “cGMP production compared to MANP or CRRL 101” value in data set [5] (10^−9 M to 10^−6 M, FIG. 5) was “great levels of cGMP production than MANP or CRRL 101”. For the same substance, the “cGMP production compared to ANP” value in data set [5] (10^−10 M to 10^−6 M, 10 min, FIG. 4) was “greater cGMP production than ANP”.
